Numbers after ± are expanded uncertainties.
Assay: xn = mol fraction of the nth substance listed
Settings: 101 kPa, Liquid

CCCCCCCC[n+]1ccn(C)c1.F[P-](F)(F)(F)(F)F [1-octyl-3-methylimidazolium hexafluorophosphate] + CCOC(C)=O
mass density (293.15 K, x1 = 0.1056): 992.13 ± 0.33 kg/m3
speed of sound (293.15 K, x1 = 0.1056): 1246.8 ± 2.6 m/s
mass density (293.15 K, x1 = 0.2064): 1052.79 ± 0.53 kg/m3
speed of sound (293.15 K, x1 = 0.2064): 1300.8 ± 2.8 m/s
mass density (293.15 K, x1 = 0.308): 1097.25 ± 0.81 kg/m3
speed of sound (293.15 K, x1 = 0.308): 1323 ± 2.9 m/s
mass density (293.15 K, x1 = 0.4094): 1130.77 ± 1.1 kg/m3
speed of sound (293.15 K, x1 = 0.4094): 1339 ± 3.1 m/s
mass density (293.15 K, x1 = 0.4991): 1154.21 ± 1.5 kg/m3
speed of sound (293.15 K, x1 = 0.4991): 1349 ± 3.2 m/s
mass density (293.15 K, x1 = 0.5916): 1174.12 ± 1.9 kg/m3
speed of sound (293.15 K, x1 = 0.5916): 1356.8 ± 3.3 m/s
mass density (293.15 K, x1 = 0.694): 1192.49 ± 2.4 kg/m3
speed of sound (293.15 K, x1 = 0.694): 1363.1 ± 3.5 m/s
mass density (293.15 K, x1 = 0.8121): 1210.2 ± 3 kg/m3
speed of sound (293.15 K, x1 = 0.8121): 1368.1 ± 3.7 m/s
mass density (293.15 K, x1 = 0.8895): 1220.31 ± 3.5 kg/m3
speed of sound (293.15 K, x1 = 0.8895): 1374.2 ± 3.9 m/s
mass density (293.15 K, x1 = 1): 1222.81 ± 4.2 kg/m3
speed of sound (293.15 K, x1 = 1): 1388.2 ± 4.1 m/s
mass density (298.15 K, x1 = 0.1056): 987.426 ± 0.33 kg/m3
speed of sound (298.15 K, x1 = 0.1056): 1228.2 ± 2.6 m/s
mass density (298.15 K, x1 = 0.2064): 1048.5 ± 0.52 kg/m3
speed of sound (298.15 K, x1 = 0.2064): 1284.8 ± 2.8 m/s
mass density (298.15 K, x1 = 0.308): 1093.04 ± 0.79 kg/m3
speed of sound (298.15 K, x1 = 0.308): 1303.4 ± 2.9 m/s
mass density (298.15 K, x1 = 0.4094): 1126.53 ± 1.1 kg/m3
speed of sound (298.15 K, x1 = 0.4094): 1325 ± 3 m/s
mass density (298.15 K, x1 = 0.4991): 1150 ± 1.4 kg/m3
speed of sound (298.15 K, x1 = 0.4991): 1335.1 ± 3.2 m/s
mass density (298.15 K, x1 = 0.5916): 1169.99 ± 1.8 kg/m3
speed of sound (298.15 K, x1 = 0.5916): 1342.7 ± 3.3 m/s
mass density (298.15 K, x1 = 0.694): 1188.53 ± 2.3 kg/m3
speed of sound (298.15 K, x1 = 0.694): 1348.9 ± 3.5 m/s
mass density (298.15 K, x1 = 0.8121): 1206.48 ± 3 kg/m3
speed of sound (298.15 K, x1 = 0.8121): 1353.8 ± 3.7 m/s
mass density (298.15 K, x1 = 0.8895): 1216.63 ± 3.5 kg/m3
speed of sound (298.15 K, x1 = 0.8895): 1358.3 ± 3.8 m/s
mass density (298.15 K, x1 = 1): 1218.9 ± 4.2 kg/m3
speed of sound (298.15 K, x1 = 1): 1373.4 ± 4.1 m/s
mass density (303.15 K, x1 = 0.1056): 982.485 ± 0.34 kg/m3
speed of sound (303.15 K, x1 = 0.1056): 1209.8 ± 2.6 m/s
mass density (303.15 K, x1 = 0.2064): 1044 ± 0.5 kg/m3
speed of sound (303.15 K, x1 = 0.2064): 1268.9 ± 2.8 m/s
mass density (303.15 K, x1 = 0.308): 1088.65 ± 0.78 kg/m3
speed of sound (303.15 K, x1 = 0.308): 1288.2 ± 2.9 m/s
mass density (303.15 K, x1 = 0.4094): 1122.2 ± 1.1 kg/m3
speed of sound (303.15 K, x1 = 0.4094): 1309 ± 3 m/s
mass density (303.15 K, x1 = 0.4991): 1145.83 ± 1.4 kg/m3
speed of sound (303.15 K, x1 = 0.4991): 1320.9 ± 3.2 m/s
mass density (303.15 K, x1 = 0.5916): 1166.01 ± 1.8 kg/m3
speed of sound (303.15 K, x1 = 0.5916): 1328.6 ± 3.3 m/s
mass density (303.15 K, x1 = 0.694): 1184.79 ± 2.3 kg/m3
speed of sound (303.15 K, x1 = 0.694): 1334.7 ± 3.5 m/s
mass density (303.15 K, x1 = 0.8121): 1202.87 ± 3 kg/m3
speed of sound (303.15 K, x1 = 0.8121): 1339.7 ± 3.7 m/s
mass density (303.15 K, x1 = 0.8895): 1212.97 ± 3.5 kg/m3
speed of sound (303.15 K, x1 = 0.8895): 1345.2 ± 3.8 m/s
mass density (303.15 K, x1 = 1): 1214.96 ± 4.1 kg/m3
speed of sound (303.15 K, x1 = 1): 1359.3 ± 4 m/s
mass density (308.15 K, x1 = 0.1056): 977.389 ± 0.35 kg/m3
speed of sound (308.15 K, x1 = 0.1056): 1191.5 ± 2.6 m/s
mass density (308.15 K, x1 = 0.2064): 1039.34 ± 0.49 kg/m3
speed of sound (308.15 K, x1 = 0.2064): 1253 ± 2.7 m/s
mass density (308.15 K, x1 = 0.308): 1084.23 ± 0.77 kg/m3
speed of sound (308.15 K, x1 = 0.308): 1273.5 ± 2.9 m/s
mass density (308.15 K, x1 = 0.4094): 1117.99 ± 1.1 kg/m3
speed of sound (308.15 K, x1 = 0.4094): 1298 ± 3 m/s
mass density (308.15 K, x1 = 0.4991): 1141.76 ± 1.4 kg/m3
speed of sound (308.15 K, x1 = 0.4991): 1306.3 ± 3.1 m/s
mass density (308.15 K, x1 = 0.5916): 1162.11 ± 1.8 kg/m3
speed of sound (308.15 K, x1 = 0.5916): 1314.2 ± 3.3 m/s
mass density (308.15 K, x1 = 0.694): 1180.99 ± 2.3 kg/m3
speed of sound (308.15 K, x1 = 0.694): 1320.5 ± 3.5 m/s
mass density (308.15 K, x1 = 0.8121): 1199.1 ± 2.9 kg/m3
speed of sound (308.15 K, x1 = 0.8121): 1325.6 ± 3.7 m/s
mass density (308.15 K, x1 = 0.8895): 1209.17 ± 3.4 kg/m3
speed of sound (308.15 K, x1 = 0.8895): 1331.3 ± 3.8 m/s
mass density (308.15 K, x1 = 1): 1211.13 ± 4.1 kg/m3
speed of sound (308.15 K, x1 = 1): 1345.8 ± 4 m/s
mass density (313.15 K, x1 = 0.1056): 972.526 ± 0.36 kg/m3
speed of sound (313.15 K, x1 = 0.1056): 1173.3 ± 2.5 m/s
mass density (313.15 K, x1 = 0.2064): 1034.74 ± 0.48 kg/m3
speed of sound (313.15 K, x1 = 0.2064): 1237.5 ± 2.7 m/s
mass density (313.15 K, x1 = 0.308): 1079.71 ± 0.76 kg/m3
speed of sound (313.15 K, x1 = 0.308): 1258.3 ± 2.8 m/s
mass density (313.15 K, x1 = 0.4094): 1113.66 ± 1.1 kg/m3
speed of sound (313.15 K, x1 = 0.4094): 1282 ± 3 m/s
mass density (313.15 K, x1 = 0.4991): 1137.66 ± 1.4 kg/m3
speed of sound (313.15 K, x1 = 0.4991): 1292.8 ± 3.1 m/s
mass density (313.15 K, x1 = 0.5916): 1158.28 ± 1.8 kg/m3
speed of sound (313.15 K, x1 = 0.5916): 1300.8 ± 3.3 m/s
mass density (313.15 K, x1 = 0.694): 1177.41 ± 2.3 kg/m3
speed of sound (313.15 K, x1 = 0.694): 1307.2 ± 3.4 m/s
mass density (313.15 K, x1 = 0.8121): 1195.57 ± 2.9 kg/m3
speed of sound (313.15 K, x1 = 0.8121): 1312.3 ± 3.6 m/s
mass density (313.15 K, x1 = 0.8895): 1205.55 ± 3.4 kg/m3
speed of sound (313.15 K, x1 = 0.8895): 1318.4 ± 3.8 m/s
mass density (313.15 K, x1 = 1): 1207.33 ± 4.1 kg/m3
speed of sound (313.15 K, x1 = 1): 1332.7 ± 4 m/s
mass density (318.15 K, x1 = 0.1056): 967.143 ± 0.37 kg/m3
speed of sound (318.15 K, x1 = 0.1056): 1155.2 ± 2.5 m/s
mass density (318.15 K, x1 = 0.2064): 1029.94 ± 0.47 kg/m3
speed of sound (318.15 K, x1 = 0.2064): 1222.1 ± 2.7 m/s
mass density (318.15 K, x1 = 0.308): 1075.23 ± 0.74 kg/m3
speed of sound (318.15 K, x1 = 0.308): 1243.5 ± 2.8 m/s
mass density (318.15 K, x1 = 0.4094): 1109.39 ± 1.1 kg/m3
speed of sound (318.15 K, x1 = 0.4094): 1268 ± 3 m/s
mass density (318.15 K, x1 = 0.4991): 1133.54 ± 1.4 kg/m3
speed of sound (318.15 K, x1 = 0.4991): 1279.3 ± 3.1 m/s
mass density (318.15 K, x1 = 0.5916): 1154.33 ± 1.8 kg/m3
speed of sound (318.15 K, x1 = 0.5916): 1287.5 ± 3.2 m/s
mass density (318.15 K, x1 = 0.694): 1173.67 ± 2.3 kg/m3
speed of sound (318.15 K, x1 = 0.694): 1294 ± 3.4 m/s
mass density (318.15 K, x1 = 0.8121): 1192.1 ± 2.9 kg/m3
speed of sound (318.15 K, x1 = 0.8121): 1299.2 ± 3.6 m/s
mass density (318.15 K, x1 = 0.8895): 1202.11 ± 3.4 kg/m3
speed of sound (318.15 K, x1 = 0.8895): 1305.2 ± 3.8 m/s
mass density (318.15 K, x1 = 1): 1203.5 ± 4 kg/m3
speed of sound (318.15 K, x1 = 1): 1320.1 ± 4 m/s
mass density (323.15 K, x1 = 0.1056): 962.069 ± 0.38 kg/m3
speed of sound (323.15 K, x1 = 0.1056): 1132.4 ± 2.5 m/s
mass density (323.15 K, x1 = 0.2064): 1025.26 ± 0.46 kg/m3
speed of sound (323.15 K, x1 = 0.2064): 1206.9 ± 2.7 m/s
mass density (323.15 K, x1 = 0.308): 1070.7 ± 0.73 kg/m3
speed of sound (323.15 K, x1 = 0.308): 1229.1 ± 2.8 m/s
mass density (323.15 K, x1 = 0.4094): 1105.03 ± 1 kg/m3
speed of sound (323.15 K, x1 = 0.4094): 1250 ± 3 m/s
mass density (323.15 K, x1 = 0.4991): 1129.38 ± 1.4 kg/m3
speed of sound (323.15 K, x1 = 0.4991): 1265.9 ± 3.1 m/s
mass density (323.15 K, x1 = 0.5916): 1150.44 ± 1.8 kg/m3
speed of sound (323.15 K, x1 = 0.5916): 1274.2 ± 3.2 m/s
mass density (323.15 K, x1 = 0.694): 1170.05 ± 2.2 kg/m3
speed of sound (323.15 K, x1 = 0.694): 1280.9 ± 3.4 m/s
mass density (323.15 K, x1 = 0.8121): 1188.56 ± 2.9 kg/m3
speed of sound (323.15 K, x1 = 0.8121): 1286.3 ± 3.6 m/s
mass density (323.15 K, x1 = 0.8895): 1198.5 ± 3.4 kg/m3
speed of sound (323.15 K, x1 = 0.8895): 1292.2 ± 3.8 m/s
mass density (323.15 K, x1 = 1): 1199.67 ± 4 kg/m3
speed of sound (323.15 K, x1 = 1): 1307.7 ± 4 m/s

— the NIST ThermoML archive (doi:10.1016/j.jct.2014.01.012)
